For experiment [1], the target named is T1, Pyruvate carboxylase (RePC) (Rhizobium etli, UniProt Q2K340). In words: ITC. The format is binding.
Experiment [2] deals with T1, Pyruvate carboxylase (RePC). Put plainly: X-ray co-crystal structure. The format is binding.

Regarding `CC(=O)C(=O)O` [pyruvate], the Kd (commonly the free concentration of one partner at which half of the binding sites on the other are occupied at equilibrium, for simple one-to-one binding) in experiment [1] is roughly 2000 µM.

With `O=C(O)C(=O)O` [oxalate], the Kd in experiment [2] came out at 130 µM.

Values taken from PMC3894693 (Biochemical and biophysical research communications, 2013).
